From US20240059688A1, “CONOLIDINE ANALOGUES AS SELECTIVE ACKR3 MODULATORS FOR THE TREATMENT OF CANCER” (Luxembourg Institute of Health (LIH), priority 2020, published 2024)

What was measured:
Format in all cases: cell-based
[1] = target: ACKR3 (Homo sapiens, UniProt P25106); assay: ACKR3 β-arrestin recruitment assay (PathHunter, β-galactosidase complementation); conditions: for EC50: stable human ACKR3-β-arrestin-2-CHO cells, mean ± SEM, at least two independent experiments in duplicate; for Emax: read-out: ACKR3 β-arrestin % CXCL12 Emax ± SEM
Chain of ACKR3 (P25106 whole entry): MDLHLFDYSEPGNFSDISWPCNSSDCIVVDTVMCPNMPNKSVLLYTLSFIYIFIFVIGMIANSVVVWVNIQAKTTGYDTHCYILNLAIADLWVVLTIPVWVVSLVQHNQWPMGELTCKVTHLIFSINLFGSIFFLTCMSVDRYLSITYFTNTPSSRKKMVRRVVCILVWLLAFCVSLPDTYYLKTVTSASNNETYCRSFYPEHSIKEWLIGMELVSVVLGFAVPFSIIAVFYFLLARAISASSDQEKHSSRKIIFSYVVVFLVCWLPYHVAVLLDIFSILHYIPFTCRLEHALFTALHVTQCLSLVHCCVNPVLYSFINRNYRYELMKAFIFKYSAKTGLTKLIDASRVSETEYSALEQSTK
Method: (§1) Compounds were evaluated for agonist activity using a β-arrestin recruitment assay based on β-galactosidase complementation (PathHunter, DiscoverX). Stable human ACKR3-β-arrestin-2-CHO cells (DiscoverX) were plated into 96-well white-walled assay plates at 15,000 cells/well in Cell Plating Reagent 2 (DiscoveRx) and incubated at 37° C., 5% CO2 overnight. The next day, test compounds were prepared at 10× concentration in DPBS/1% DMSO and 10 μL was added to the cells. CXCL-12 was included as a positive agonist control. Following a 1.5 hr incubation at 37° C., 55 μL of detection reagent (prepared according to the manufacturer's specifications) was added to each well. The plate was incubated at room temperature for 1 hr, after which luminescence was measured at 1 sec/well using an EnSpire multimode plate reader (PerkinElmer). Relative luminescence units (RLU) were plotted against the log of compound concentration and data were fit to a three-parameter logistic curve to generate EC50 values (GraphPad Prism). EC50 and % Emax values are reported as means±SEM and are the result of at least two independent experiments performed in duplicate. The CXCR4 assay was run similarly except that human CXCR4-C2Cl2 cells (DiscoverX) were plated at 20,000 cells/well in Cell Plating Reagent 9. The next day, the media was removed and cells were incubated with Cell Plating Reagent 4 for 3 hrs, after which the assay was conducted as described above.

[2] = target: T1, human CXCR4 (Homo sapiens, UniProt P61073); assay: CXCR4 β-arrestin recruitment assay (PathHunter); conditions: human CXCR4-C2Cl2 cells, relative to CXCL-12
T1 construct: host or cells: C2C12
T1 sequence (P61073 whole entry): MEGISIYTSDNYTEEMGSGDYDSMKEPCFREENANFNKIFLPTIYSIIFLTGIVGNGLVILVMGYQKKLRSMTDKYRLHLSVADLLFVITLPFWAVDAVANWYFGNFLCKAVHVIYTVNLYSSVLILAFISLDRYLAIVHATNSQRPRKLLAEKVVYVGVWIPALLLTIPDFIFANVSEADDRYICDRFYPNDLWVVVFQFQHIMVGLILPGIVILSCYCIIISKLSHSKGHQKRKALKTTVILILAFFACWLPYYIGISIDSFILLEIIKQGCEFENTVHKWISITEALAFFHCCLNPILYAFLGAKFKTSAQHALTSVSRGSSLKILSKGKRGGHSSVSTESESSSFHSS
Method: as §1

[3] = target: T2, CaV 3.2 (Homo sapiens, UniProt O95180); assay: CaV 3.2 calcium assay in stable human CaV3.2-HEK293 cells; conditions: control agonist calcium chloride
T2 construct: expressed in transfected cells
T2 sequence (O95180 whole entry): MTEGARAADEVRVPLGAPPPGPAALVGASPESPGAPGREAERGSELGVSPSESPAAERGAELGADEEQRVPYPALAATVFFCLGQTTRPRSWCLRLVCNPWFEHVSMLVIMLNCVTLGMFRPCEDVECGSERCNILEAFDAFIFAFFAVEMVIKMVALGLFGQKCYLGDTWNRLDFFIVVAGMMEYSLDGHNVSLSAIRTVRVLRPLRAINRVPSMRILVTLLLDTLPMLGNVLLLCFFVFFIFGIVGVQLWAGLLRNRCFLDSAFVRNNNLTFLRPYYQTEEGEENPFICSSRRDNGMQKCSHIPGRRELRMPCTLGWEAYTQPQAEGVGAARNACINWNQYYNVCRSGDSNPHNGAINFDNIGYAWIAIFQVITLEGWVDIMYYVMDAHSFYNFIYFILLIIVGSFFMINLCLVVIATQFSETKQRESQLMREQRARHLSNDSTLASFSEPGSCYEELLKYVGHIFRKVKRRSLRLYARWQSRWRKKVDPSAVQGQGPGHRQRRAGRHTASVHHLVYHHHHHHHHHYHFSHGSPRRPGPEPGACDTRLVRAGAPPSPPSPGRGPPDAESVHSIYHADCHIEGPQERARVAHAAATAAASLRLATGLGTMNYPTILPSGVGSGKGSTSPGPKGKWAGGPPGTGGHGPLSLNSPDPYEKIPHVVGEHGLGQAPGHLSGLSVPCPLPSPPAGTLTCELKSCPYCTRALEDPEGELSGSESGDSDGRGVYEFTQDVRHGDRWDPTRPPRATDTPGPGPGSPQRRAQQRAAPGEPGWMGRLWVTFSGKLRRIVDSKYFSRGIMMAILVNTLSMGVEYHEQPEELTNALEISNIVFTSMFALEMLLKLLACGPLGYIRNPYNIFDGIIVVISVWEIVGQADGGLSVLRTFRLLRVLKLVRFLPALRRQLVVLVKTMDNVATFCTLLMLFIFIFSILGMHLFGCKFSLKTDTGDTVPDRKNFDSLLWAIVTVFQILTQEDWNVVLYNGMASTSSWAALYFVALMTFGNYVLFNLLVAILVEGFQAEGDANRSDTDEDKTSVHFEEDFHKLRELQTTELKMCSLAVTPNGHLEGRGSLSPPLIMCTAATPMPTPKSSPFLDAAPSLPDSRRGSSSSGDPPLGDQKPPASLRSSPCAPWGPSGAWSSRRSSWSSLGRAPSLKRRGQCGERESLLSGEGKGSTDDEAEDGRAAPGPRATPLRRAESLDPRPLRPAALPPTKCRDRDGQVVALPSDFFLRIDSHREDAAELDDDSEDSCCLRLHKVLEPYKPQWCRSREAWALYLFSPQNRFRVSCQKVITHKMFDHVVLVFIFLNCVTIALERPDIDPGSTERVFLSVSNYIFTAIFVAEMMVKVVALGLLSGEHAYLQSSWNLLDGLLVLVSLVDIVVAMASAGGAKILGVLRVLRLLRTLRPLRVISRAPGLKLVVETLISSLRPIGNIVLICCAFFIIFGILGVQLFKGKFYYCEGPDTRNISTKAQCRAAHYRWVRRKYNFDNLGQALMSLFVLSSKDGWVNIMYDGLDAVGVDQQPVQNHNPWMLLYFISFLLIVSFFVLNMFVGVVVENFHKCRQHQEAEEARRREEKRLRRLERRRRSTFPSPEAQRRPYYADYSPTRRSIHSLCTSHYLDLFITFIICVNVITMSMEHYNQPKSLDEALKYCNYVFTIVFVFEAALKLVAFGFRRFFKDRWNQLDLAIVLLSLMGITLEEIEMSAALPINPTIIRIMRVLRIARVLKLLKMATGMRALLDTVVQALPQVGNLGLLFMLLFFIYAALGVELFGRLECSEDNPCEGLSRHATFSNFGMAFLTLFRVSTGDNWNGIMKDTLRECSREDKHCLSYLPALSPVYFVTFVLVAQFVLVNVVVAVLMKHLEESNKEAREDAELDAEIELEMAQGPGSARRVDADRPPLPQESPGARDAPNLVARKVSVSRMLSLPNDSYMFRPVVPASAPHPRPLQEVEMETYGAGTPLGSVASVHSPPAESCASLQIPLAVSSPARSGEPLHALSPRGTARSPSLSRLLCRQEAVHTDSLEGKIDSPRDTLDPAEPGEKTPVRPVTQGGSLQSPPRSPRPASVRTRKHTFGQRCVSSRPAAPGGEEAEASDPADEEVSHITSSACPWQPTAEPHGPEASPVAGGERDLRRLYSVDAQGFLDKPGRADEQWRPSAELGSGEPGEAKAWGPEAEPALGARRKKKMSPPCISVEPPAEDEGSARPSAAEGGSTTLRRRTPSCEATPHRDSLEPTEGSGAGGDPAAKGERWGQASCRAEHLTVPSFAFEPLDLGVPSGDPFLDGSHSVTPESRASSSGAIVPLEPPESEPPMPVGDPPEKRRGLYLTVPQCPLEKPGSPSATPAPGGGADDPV
Method: (§2) Compounds were evaluated for kappa (KOR), mu (MOR), and delta (DOR) opioid receptor agonist and antagonist activity in three individual cell lines overexpressing Gαq16 (CHO-RD-HGA16, Molecular Devices) and the human kappa, mu, and delta opioid receptors, respectively. The day before the assay, cells were plated into 96-well black-walled assay plates at 30,000 cells/well in Ham's F12 supplemented with 10% fetal bovine serum, and 100 units of penicillin and streptomycin. The cells were incubated overnight at 37° C., 5% CO2. Prior to the assay, Calcium 5 dye (Molecular Devices) was reconstituted according to the manufacturer's instructions. The reconstituted dye was diluted 1:40 in pre-warmed (37° C.) assay buffer (1×HBSS, 20 mM HEPES, 2.5 mM probenecid, pH 7.4 at 37° C.). Growth medium was removed and the cells were gently washed with 100 μL of pre-warmed (37° C.) assay buffer. The cells were incubated for 45 minutes at 37° C., 5% CO2 in 200 μL of the diluted Calcium 5 dye. For the agonist screen, a single concentration of each test compound and receptor-specific controls (U69,593, DAMGO, and DPDPE for KOR, MOR, and DOR, respectively) were prepared at 10× the desired final concentration in 1% DMSO/assay buffer, aliquoted into a 96-well polystyrene plate, and warmed to 37° C. After the dye-loading incubation period, pretreatment solution was added to each well (25 μL of 9% DMSO/assay buffer) and, after 15 min, the plate was read with a FlexStation II (Molecular Devices). Calcium-mediated changes in fluorescence were monitored every 1.52 seconds over a 60 second time period, with the FlexStation II adding 50 μL of test compounds at the 19 second time point (excitation at 485 nm, detection at 525 nm). Peak kinetic reduction (SoftMax, Molecular Devices) relative fluorescence units (RFU) were used to calculate % control agonist Emax with the equation % Emax=(test compound RFU/control agonist RFU)×100. For the antagonist screens, the same procedure was followed except that the pretreatment solution consisted of the test compounds (prepared at […] the desired final concentration in 9% DMSO/assay buffer) and the FlexStation added the EC60 concentration (prepared at 10× the desired final concentration in 1% DMSO/assay buffer) of each respective control agonist. Peak RFU were used to calculate % control EC60 inhibition with the equation % inhibition=((EC60 RFU−test compound RFU)/EC60 RFU)×100. When IC50 determinations were made, the same antagonist screen procedure was followed except that cells were pretreated with 8-pt concentration-response curves of the test compounds. Peak RFU were plotted against the log of compound concentration using non-linear regression analysis to generate IC50 values (GraphPad Prism). Each test sample was analyzed in duplicate in two independent experiments.
Compounds were evaluated for activity at CaV 3.2 using stable human CaV3.2-HEK293 cells and the control agonist calcium chloride. The day before the assay, cells were plated into 96-well black-walled assay plates coated with poly-D-lysine in DMEM-F12 supplemented with 10% fetal bovine serum, 100 units penicillin/streptomycin, and 500 μM sodium pyruvate, and incubated at 37° C., 5% CO2 overnight. Prior to the assay, Calcium 5 dye (Molecular Devices) was reconstituted according to the manufacturer instructions. The reconstituted dye was diluted 1:10 in pre-warmed (37° C.) assay buffer (1×HBSS, […], […], pH 7.4 at 37° C.). The cells were incubated for 45 minutes at 37° C., 5% CO2 in 200 μL of the diluted Calcium 5 dye. Compounds were prepared as described above and the plate was read with a FLIPR Tetra (Molecular Devices). Calcium-mediated changes in fluorescence were monitored every 1 second over a 60 second time period, with the Tetra adding 25 μL of appropriate compound at the 10 second time point (excitation at 470-495 nm, detection at 515-575 nm). […]

[4] = target: KOR (Homo sapiens, UniProt P41145); assay: KOR calcium mobilization agonist/antagonist screen (CHO-RD-HGA16 cells); set-up: host or cells: CHO-RD-HGA16; conditions: single concentration; for Emax: CHO-RD-HGA16, agonist screen, control agonist U69,593; for KOR Calcium % U69, 593 Inhibition: antagonist screen, vs EC60 of U69,593
Chain of KOR (P41145 whole entry): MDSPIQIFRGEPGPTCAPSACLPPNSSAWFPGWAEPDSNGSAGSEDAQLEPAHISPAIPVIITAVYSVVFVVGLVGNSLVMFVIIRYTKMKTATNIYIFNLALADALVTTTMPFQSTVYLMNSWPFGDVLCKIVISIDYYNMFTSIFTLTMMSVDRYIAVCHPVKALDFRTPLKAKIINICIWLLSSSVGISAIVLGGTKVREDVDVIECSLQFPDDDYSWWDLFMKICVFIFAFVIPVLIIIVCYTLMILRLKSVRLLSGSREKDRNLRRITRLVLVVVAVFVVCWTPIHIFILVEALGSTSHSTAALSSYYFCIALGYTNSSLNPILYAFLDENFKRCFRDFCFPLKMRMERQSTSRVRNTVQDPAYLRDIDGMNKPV
Method: as §2

[5] = target: MOR (Homo sapiens, UniProt P35372); assay: MOR calcium mobilization agonist/antagonist screen (CHO-RD-HGA16 cells); set-up: host or cells: CHO-RD-HGA16; conditions: single concentration; for Emax: CHO-RD-HGA16, agonist screen, control agonist DAMGO; for MOR Calcium % DAMGO Inhibition: antagonist screen, vs EC60 of DAMGO
Chain of MOR (P35372 whole entry): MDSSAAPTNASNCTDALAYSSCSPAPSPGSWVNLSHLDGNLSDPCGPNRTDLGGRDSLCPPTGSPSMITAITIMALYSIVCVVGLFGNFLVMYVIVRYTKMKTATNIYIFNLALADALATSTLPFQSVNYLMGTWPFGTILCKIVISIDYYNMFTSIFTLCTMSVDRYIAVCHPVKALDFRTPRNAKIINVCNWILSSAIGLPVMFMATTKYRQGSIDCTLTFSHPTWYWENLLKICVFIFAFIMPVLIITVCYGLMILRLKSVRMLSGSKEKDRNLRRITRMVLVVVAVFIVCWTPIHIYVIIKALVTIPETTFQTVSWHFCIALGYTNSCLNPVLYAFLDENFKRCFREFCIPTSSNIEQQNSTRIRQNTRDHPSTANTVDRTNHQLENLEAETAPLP
Method: as §2

[6] = target: DOR (Homo sapiens, UniProt P41143); assay: DOR calcium mobilization agonist/antagonist screen (CHO-RD-HGA16 cells); set-up: host or cells: CHO-RD-HGA16; conditions: single concentration; for Emax: CHO-RD-HGA16, agonist screen, control agonist DPDPE; for DOR Calcium % DPDPE Inhibition: antagonist screen, vs EC60 of DPDPE
Chain of DOR (P41143 whole entry): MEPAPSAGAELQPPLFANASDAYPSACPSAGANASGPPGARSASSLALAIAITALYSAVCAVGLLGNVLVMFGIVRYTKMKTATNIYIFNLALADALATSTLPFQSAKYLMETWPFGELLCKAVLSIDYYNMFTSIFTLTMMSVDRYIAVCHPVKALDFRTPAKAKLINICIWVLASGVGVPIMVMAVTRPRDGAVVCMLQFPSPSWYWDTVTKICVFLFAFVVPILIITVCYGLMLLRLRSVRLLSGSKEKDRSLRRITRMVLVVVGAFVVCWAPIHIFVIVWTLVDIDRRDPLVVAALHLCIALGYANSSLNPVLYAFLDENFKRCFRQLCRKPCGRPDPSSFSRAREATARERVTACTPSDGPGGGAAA
Method: as §2

Row | Structure (SMILES) | EC50 [1] [µM] | CXCR4 β-arrestin % CXCL-12Emax (n = 2) [2] [%] | CaV 3.2 % CaCl2 Inhibition [3] [%] | Emax [4] [%] | KOR Calcium % U69, 593 Inhibition [4] [%] | Emax [5] [%] | MOR Calcium % DAMGO Inhibition [5] [%] | Emax [6] [%] | DOR Calcium % DPDPE Inhibition [6] [%] | Emax [1] [%]
1 | C/C=C1/CN2CC[C@H]1C(=O)c1[nH]c3ccc(Cl)cc3c1C2 [WW-2, (4E,5R)-10-chloro-4-ethylidene-1,4,5,7-tetrahydro-2,5-ethanoazocino[4,3-b]indol-6(3H)-one] | > 10 | 4 | 5 | 1 | 22 | 0 | 5 | 0 | 18 | –
2 | C/C=C1/CN2CC[C@H]1C(=O)c1[nH]c3cc(F)ccc3c1C2 [WW-3, (4E,5R)-4-ethylidene-9-fluoro-1,4,5,7-tetrahydro-2,5-ethanoazocino[4,3-b]indol-6(3H)-one] | > 10 | 1 | 1 | 1 | 14 | 1 | 1 | 0 | 9 | –
3 | C/C=C1/CN2CC[C@H]1C(=O)c1[nH]c3ccc(F)cc3c1C2 [WW-4, (4E,5R)-10-fluoro-4-ethylidene-1,4,5,7-tetrahydro-2,5-ethanoazocino[4,3-b]indol-6(3H)-one] | > 10 | 2 | 6 | 1 | 14 | 0 | 0 | 1 | 9 | –
4 | C/C=C1/CN2CC[C@H]1C(=O)c1[nH]c3ccc(OC)cc3c1C2 [WW-5, (4E,5R)-10-methoxy-4-ethylidene-1,4,5,7-tetrahydro-2,5-ethanoazocino[4,3-b]indol-6(3H)-one] | 8.15 ± 0.59 | 7 | 9 | 20 | 17 | 1 | 13 | 2 | 22 | 171 ± 6
5 | C/C=C1/CN(CCCCC)CC[C@H]1C(=O)c1cc2cc(C(C)=O)ccc2n1CCCCC [WW-66, 1-(2-{[(3E,4R)-3-ethylidene-1-pentylpiperidin-4-yl]carbonyl}-1-pentyl-1H-indol-5-yl)ethanone] | > 10 | 8 | – | – | – | – | – | – | – | –
6 | C/C=C1/CN(CCCCCCC)CC[C@H]1C(=O)c1cc2ccccc2[nH]1 [WW-67, [(3E,4R)-3-ethylidene-1-heptylpiperidin-4-yl](1H-indol-2-yl)methanone] | 2.46 ± 0.27 | 12 | – | – | – | – | – | – | – | 135 ± 4
7 | C/C=C1/CN(CC2CCCCC2)CC[C@H]1C(=O)c1cc2ccccc2[nH]1 [WW-68, [(3E,4R)-1-(cyclohexylmethyl)-3-ethylidenepiperidin-4-yl](1H-indol-2-yl)methanone] | 3.61 ± 0.39 | 8 | – | – | – | – | – | – | – | 136 ± 3
8 | C/C=C1/CN(Cc2ccc(OC)cc2)CC[C@H]1C(O)c1cc2cc(-c3ccc(F)cc3)ccc2n1S(=O)(=O)c1ccccc1 (stereo partly drawn) [WW-69] | 1.68 ± 0.3 | 11 | – | – | – | – | – | – | – | 79 ± 6
9 | C/C=C1/CN(Cc2ccc(OC)cc2)CC[C@H]1C(O)c1cc2cc(C#N)ccc2n1S(=O)(=O)c1ccccc1 (stereo partly drawn) [WW-70, 2-{[(3E, 4R)-(3-ethylidene-1-(4-methoxybenzyl)piperidin-4-yl)](hydroxy)methyl}-1-(phenylsulfonyl)-1H-indole-5-carbonitrile] | > 10 | −2 | – | – | – | – | – | – | – | –
10 | C/C=C1/CN(CCCCCC(=O)OC)CC[C@H]1C(=O)c1cc2ccccc2[nH]1 [WW-71, Methyl 6-[(3E,4R)-3-ethylidene-4-(1H-indol-2-ylcarbonyl)piperidin-1-yl]hexanoate] | > 10 | 4 | – | – | – | – | – | – | – | –
11 | C/C=C1/CN(CCCCOc2ccccc2)CC[C@H]1C(=O)c1cc2ccccc2[nH]1 [WW-72, (3E,4R)-(3-ethylidene-1-(4-phenoxybutyl)piperidin-4-yl)(1H-indol-2-yl)methanone] | 3.78 ± 0.98 | 4 | – | – | – | – | – | – | – | 145 ± 16
12 | C/C=C1/CN(CCCCC)CC[C@H]1C(=O)c1cc2cc(-c3ccc(F)cc3)ccc2[nH]1 [WW-73, [(3E,4R)-3-ethylidene-1-pentylpiperidin-4-yl][5-(4-fluorophenyl)-1H-indol-2-yl]methanone] | > 10 | 9 | – | – | – | – | – | – | – | –
13 | C/C=C1/CN(CCCCC)CC[C@H]1C(O)c1cc2ccccc2n1S(=O)(=O)c1ccccc1 (stereo partly drawn) [WW-74] | 0.177 ± 0.01 | 3 | – | – | – | – | – | – | – | 172 ± 6
